Columns and labels:
Format in all cases: functional, cell-based
[1] = tested on: HepG2; experiment: Cytotoxicity against human HepG2 cells assessed as growth inhibition after 72 hrs by neutral red assay; conditions: HepG2, 72 h
[2] = tested on: KB; experiment: Cytotoxicity against human KB cells assessed as growth inhibition after 72 hrs by neutral red assay
[3] = tested on: MCF7; experiment: Cytotoxicity against human MCF7 cells assessed as growth inhibition after 72 hrs by neutral red assay; conditions: MCF7, 72 h
[4] = tested on: Lu1; experiment: Cytotoxicity against human Lu1 cells assessed as growth inhibition after 72 hrs by neutral red assay; conditions: Lu1, 72 h

| Compound | IC50 [1] | IC50 [2] | IC50 [3] | IC50 [4] |
| --- | --- | --- | --- | --- |
| CO[C@@H]1CC(=O)[C@]2(C)[C@@H]1[C@H](O)C[C@@H]1[C@@]3(C)CC[C@H](O)C(C)(C)[C@@H]3CC[C@]12C | 82 µM | 78 µM | 79.7 µM | 80.7 µM |
| CC1(C)[C@@H](O)CC[C@]2(C)[C@H]3C[C@@H](O)[C@@H]4C=CC(=O)[C@@]4(C)[C@]3(C)CC[C@@H]12 | 5.1 µM | 5.2 µM | 5 µM | 5.2 µM |
| C/C(=C\CO)CCCC(C)CCCC(C)CCCC(C)C (stereo not drawn) | > 100 µM | > 100 µM | > 100 µM | > 100 µM |
| C/C(=C\CC[C@](C)(O)[C@H]1CC[C@]2(C)[C@@H]1CC[C@@H]1[C@@]3(C)CCC(=O)C(C)(C)[C@@H]3CC[C@]12C)C(=O)O | > 100 µM | > 100 µM | > 100 µM | > 100 µM |
| CC1(C)[C@@H](O)CC[C@]2(C)[C@H]3C[C@@H](O)[C@@H]4[C@H](O)CC(=O)[C@@]4(C)[C@]3(C)CC[C@@H]12 | > 100 µM | > 100 µM | > 100 µM | > 100 µM |
| CC1(C)C(=O)CC[C@]2(C)[C@H]3C[C@@H](O)[C@@H]4C=CC(=O)[C@@]4(C)[C@]3(C)CC[C@@H]12 | 5.3 µM | 5 µM | 4.7 µM | 5.1 µM |
| C=C(C)[C@@H]1CC[C@@]2(C)[C@H]1[C@H]1CC[C@@H]3[C@@]4(C)CCC(=O)C(C)(C)[C@@H]4CC[C@@]3(C)[C@]1(C)C[C@@H]2O | 50.4 µM | 30.5 µM | 48 µM | 61.5 µM |
| C/C(=C\CC[C@](C)(O)[C@@H]1[C@H]2CC[C@@H]3[C@@]4(C)CCC(=O)C(C)(C)[C@@H]4CC[C@@]3(C)[C@]2(C)C[C@@H]1O)C(=O)O | > 100 µM | > 100 µM | > 100 µM | > 100 µM |
| CC1(C)C(=O)CC[C@]2(C)[C@H]3C[C@@H](O)[C@@H]4[C@H](O)CC(=O)[C@@]4(C)[C@]3(C)CC[C@@H]12 | 5.7 µM | > 100 µM | 4.3 µM | 5.8 µM |
| C[C@H]1[C@H](C)CC[C@]2(C)CC[C@]3(C)C(=CC[C@@H]4[C@@]5(C)CC[C@H](O)C(C)(C)[C@@H]5CC[C@]43C)[C@H]12 | > 100 µM | > 100 µM | > 100 µM | > 100 µM |
| COc1c(-c2ccc(O)cc2)oc2cc(O)cc(O)c2c1=O [ISOKAEMPFERIDE] | 62.5 µM | 64.8 µM | 55.4 µM | 60.1 µM |
| O=c1cc(-c2ccc(O)c(O)c2)oc2cc(O)cc(O)c12 [LUTEOLIN] | 47.3 µM | 45.3 µM | 44.4 µM | 40.8 µM |
| CC1(C)CC[C@]2(C(=O)O)CC[C@]3(C)C(=CC[C@@H]4[C@@]5(C)C[C@@H](O)[C@H](O)C(C)(C)[C@@H]5CC[C@]43C)[C@@H]2C1 [MASLINIC ACID] | > 100 µM | > 100 µM | > 100 µM | > 100 µM |
| CC1(C)CC[C@]2(C(=O)O)CC[C@]3(C)C(=CC[C@@H]4[C@@]5(C)CC[C@H](O)C(C)(C)[C@@H]5CC[C@]43C)[C@@H]2C1 [OLEANOLIC_ACID] | > 100 µM | > 100 µM | > 100 µM | > 100 µM |
| C[C@H]1[C@H](C)CC[C@]2(C(=O)O)CC[C@]3(C)C(=CC[C@@H]4[C@@]5(C)CC[C@H](O)C(C)(C)[C@@H]5CC[C@]43C)[C@H]12 [URSOLIC ACID] | 40.2 µM |  | 9.3 µM | 11.5 µM |
| C[C@H]1[C@H](C)CC[C@]2(CO)CC[C@]3(C)C(=CC[C@@H]4[C@@]5(C)CC[C@H](O)C(C)(C)[C@@H]5CC[C@]43C)[C@H]12 [UVAOL] | 53.7 µM | 37.7 µM | 58.2 µM | 53.3 µM |

— ChEMBL document CHEMBL4007502, “Cytotoxic dammarane-type triterpenoids from the leaves of Viburnum sambucinum” (Bioorg Med Chem Lett, 2017)
